According to patent US8178522B2, “Thiazoles” (Hoffmann-La Roche Inc., priority 2009, dated 2012):

biological target: T1, GABA A α5 (α5β3γ2) (Homo sapiens, UniProt P18507+P31644); test: [3H]flumazenil competition binding, human GABA A α5 receptor; conditions: human receptor α5β3γ2 transiently transfected in HEK293 cells; competition for [3H]flumazenil 0.5 nM; 1 hour at 4° C.; means of two determinations; read-out: hKi GABA A α5
T1 construct: expressed in transfected cells; host or cells: HEK293, transiently transfected; membrane preparation
How it was run: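 Competition with [3H]flumazenil at membranes from HEK293 cells transiently expressing human α5β3γ2, in Krebs-tris buffer pH 7.5. Equilibrium 1 hour at 4° C, filtration with ice-cold 50 mM Tris wash, scintillation counting. Ki values are means of two determinations.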

Row | Ki | Structure (SMILES)
1 | 35.6 nM | CCCCc1noc(C)c1CCc1nc(C)c(C(=O)N[C@H](C)CO)s1 [Example 55, 2-[2-(3-Butyl-5-methyl-isoxazol-4-yl)-ethyl]-4-methyl-thiazole-5-carboxylic acid ((R)-2-hydroxy-1-methyl-ethyl)-amide]
2 | 4.4 nM | CCCCc1noc(C)c1/C=C/c1nc(C)c(C(=O)NN(C)C)s1 [Example 102, 2-[(E)-2-(3-Butyl-5-methyl-isoxazol-4-yl)-vinyl]-4-methyl-thiazole-5-carboxylic acid N′,N′-dimethyl-hydrazide]
3 | 1.5 nM | CCCCc1noc(C)c1/C=C/c1nc(C)c(C(=O)NC2CCOCC2)s1 [Example 96, 2-[(E)-2-(3-Butyl-5-methyl-isoxazol-4-yl)-vinyl]-4-methyl-thiazole-5-carboxylic acid (tetrahydro-pyran-4-yl)-amide]
4 | 5 nM | CCCCc1noc(C)c1/C=C/c1nc(C)c(C(=O)NCC)s1 [Example 121, 2-[(E)-2-(3-Butyl-5-methyl-isoxazol-4-yl)-vinyl]-4-methyl-thiazole-5-carboxylic acid ethylamide]
5 | 28.8 nM | CCCCc1noc(C)c1/C=C\c1nc(C)c(C(=O)NCCO)s1 [Example 101, 2-[(Z)-2-(3-Butyl-5-methyl-isoxazol-4-yl)-vinyl]-4-methyl-thiazole-5-carboxylic acid (2-hydroxy-ethyl)-amide]
6 | 5.5 nM | CCCCc1noc(C)c1/C=C/c1ncc(C(=O)NC(C)C)s1 [Example 124, 2-[(E)-2-(3-Butyl-5-methyl-isoxazol-4-yl)-vinyl]-thiazole-5-carboxylic acid isoprop-ylamide]
7 | 4.1 nM | Cc1nc(/C=C/c2c(-c3ccc(F)cn3)noc2C)sc1C(N)=O [Example 76, 2-{(E)-2-[3-(5-Fluoro-pyridin-2-yl)-5-methyl-isoxazol-4-yl]-vinyl}-4-methyl-thiazole-5-carboxylic acid amide]
8 | 10.2 nM | CCCCc1noc(C)c1COc1ncc(C(=O)NC(C)C)s1 [Example 132, 2-(3-Butyl-5-methyl-isoxazol-4-ylmethoxy)-thiazole-5-carboxylic acid isopropylamide]
9 | 1.6 nM | Cc1nc(/C=C/c2c(-c3ccc(F)cn3)noc2C)sc1C(=O)NC1CC1 [Example 73, 2-{(E)-2-[3-(5-Fluoro-pyridin-2-yl)-5-methyl-isoxazol-4-yl]-vinyl}-4-methyl-thiazole-5-carboxylic acid cyclopropylamide]
10 | 2.5 nM | CCCCc1noc(C)c1/C=C/c1nc(C)c(C(=O)NC2CCS(=O)(=O)C2)s1 (stereo not drawn) [Example 118, 2-[(E)-2-(3-Butyl-5-methyl-isoxazol-4-yl)-vinyl]-4-methyl-thiazole-5-carboxylic acid (1,1-dioxo-tetrahydrothiophen-3-yl)-amide]
11 | 39.2 nM | CCCCc1noc(C)c1CCc1ncc(C(=O)NC(C)C)s1 [Example 57, 2-[2-(3-Butyl-5-methyl-isoxazol-4-yl)-ethyl]-thiazole-5-carboxylic acid isopropylamide]
12 | 30.8 nM | CCCCc1noc(C)c1/C=C/c1nc(C)c(C(=O)N2CCC2)s1 [Example 110, Azetidin-1-yl-{2-[(E)-2-(3-butyl-5-methyl-isoxazol-4-yl)-vinyl]-4-methyl-thiazol-5-yl}-methanone]
13 | 1.1 nM | CCCCc1noc(C)c1/C=C/c1nc(C)c(C(=O)N2CC3(COC3)C2)s1 [Example 123, {2-[(E)-2-(3-Butyl-5-methyl-isoxazol-4-yl)-vinyl]-4-methyl-thiazol-5-yl}-(2-oxa-6-aza-spiro[3.3]hept-6-yl)-methanone]
14 | 3.1 nM | CCCCc1noc(C)c1/C=C/c1nc(C)c(C(=O)NC(CC)CO)s1 (racemic) [Example 104, Rac-2-[(E)-2-(3-Butyl-5-methyl-isoxazol-4-yl)-vinyl]-4-methyl-thiazole-5-carboxylic acid (1-hydroxymethyl-propyl)-amide]
15 | 2 nM | CCCCc1noc(C)c1/C=C/c1nc(C)c(C(N)=O)s1 [Example 100, 2-[(E)-2-(3-Butyl-5-methyl-isoxazol-4-yl)-vinyl]-4-methyl-thiazole-5-carboxylic acid amide]
16 | 21.5 nM | CCCCc1noc(C)c1COc1ncc(C(=O)NCCO)s1 [Example 134, 2-(3-Butyl-5-methyl-isoxazol-4-ylmethoxy)-thiazole-5-carboxylic acid (2-hydroxy-ethyl)-amide]
17 | 6.4 nM | CCCCc1noc(C)c1/C=C/c1nc(C)c(C(=O)NC2CCCC2O)s1 (stereo in doubt) [Example 114, 2-[(E)-2-(3-Butyl-5-methyl-isoxazol-4-yl)-vinyl]-4-methyl-thiazole-5-carboxylic acid ((1R,2R)-2-hydroxy-cyclopentyl)-amide]

The remaining lines, values behind:

Row | Structure (SMILES) | Ki
18 | Cc1onc(-c2ccccc2)c1COc1ncc(C(=O)NCCO)s1 [Example 130, 2-(5-Methyl-3-phenyl-isoxazol-4-ylmethoxy)-thiazole-5-carboxylic acid (2-hydroxy-ethyl)-amide] | 5.4 nM
19 | CNC(=O)c1cnc(CCc2c(-c3ccc(F)cn3)noc2C)s1 [Example 47, 2-{2-[3-(5-Fluoro-pyridin-2-yl)-5-methyl-isoxazol-4-yl]-ethyl}-thiazole-5-carboxylic acid methylamide] | 26.3 nM
20 | Cc1onc(-c2ccc(F)cn2)c1/C=C/c1ncc(C(=O)NC2CCOCC2)s1 [Example 77, 2-{(E)-2-[3-(5-Fluoro-pyridin-2-yl)-5-methyl-isoxazol-4-yl]-vinyl}-thiazole-5-carboxylic acid (tetrahydro-pyran-4-yl)-amide] | 3.5 nM
21 | Cc1onc(-c2ccccc2)c1/C=C/c1ncc(C(=O)NCCO)s1 [Example 67, 2-[(E)-2-(5-Methyl-3-phenyl-isoxazol-4-yl)-vinyl]-thiazole-5-carboxylic acid (2-hydroxy-ethyl)-amide] | 2.8 nM
22 | Cc1onc(-c2ccc(F)cn2)c1/C=C/c1ncc(C(=O)N2CCOCC2)s1 [Example 86, (2-{(E)-2-[3-(5-Fluoro-pyridin-2-yl)-5-methyl-isoxazol-4-yl]-vinyl}-thiazol-5-yl)-morpholin-4-yl-methanone] | 31.2 nM
23 | Cc1nc(CCc2conc2-c2ccccn2)sc1C(=O)NC1CCOCC1 [Example 19, 4-Methyl-2-[2-(3-pyridin-2-yl-isoxazol-4-yl)-ethyl]-thiazole-5-carboxylic acid (tetra-hydro-pyran-4-yl)-amide] | 87.6 nM
24 | Cc1onc(-c2ccccn2)c1CCc1ncc(C(N)=O)s1 [Example 25, 2-[2-(5-Methyl-3-pyridin-2-yl-isoxazol-4-yl)-ethyl]-thiazole-5-carboxylic acid amide] | 33.6 nM
25 | Cc1onc(-c2ccc(F)cn2)c1/C=C/c1ncc(C(N)=O)s1 [Example 81, 2-{(E)-2-[3-(5-Fluoro-pyridin-2-yl)-5-methyl-isoxazol-4-yl]-vinyl}-thiazole-5-carboxylic acid amide] | 5.5 nM
26 | Cc1nc(/C=C/c2conc2-c2ccc(F)cn2)sc1C(=O)NC1CCOCC1 [Example 90, 2-{(E)-2-[3-(5-Fluoro-pyridin-2-yl)-isoxazol-4-yl]-vinyl}-4-methyl-thiazole-5-carboxylic acid (tetrahydro-pyran-4-yl)-amide] | 24.8 nM
27 | COC(=O)c1sc(CCc2c(-c3ccc(F)cn3)noc2C)nc1C [Example 30, 2-{2-[3-(5-Fluoro-pyridin-2-yl)-5-methyl-isoxazol-4-yl]-ethyl}-4-methyl-thiazole-5-carboxylic acid methyl ester] | 23.6 nM
28 | Cc1onc(-c2ccc(F)cn2)c1CCc1ncc(C(=O)NCC2CC2)s1 [Example 43, 2-{2-[3-(5-Fluoro-pyridin-2-yl)-5-methyl-isoxazol-4-yl]-ethyl}-thiazole-5-carboxylic acid cyclopropylmethyl-amide] | 18.6 nM
29 | Cc1nc(CCc2c(-c3ccccn3)noc2C)sc1C(=O)NCC1CC1 [Example 12, 4-Methyl-2-[2-(5-methyl-3-pyridin-2-yl-isoxazol-4-yl)-ethyl]-thiazole-5-carboxylic acid cyclopropylmethyl-amide] | 13.4 nM
30 | CNC(=O)c1cnc(/C=C/c2c(-c3ccc(F)cn3)noc2C)s1 [Example 88, 2-{(E)-2-[3-(5-Fluoro-pyridin-2-yl)-5-methyl-isoxazol-4-yl]-vinyl}-thiazole-5-carboxylic acid methylamide] | 6.2 nM
31 | CNC(=O)c1sc(CCc2c(-c3ccccn3)noc2C)nc1C [Example 16, 4-Methyl-2-[2-(5-methyl-3-pyridin-2-yl-isoxazol-4-yl)-ethyl]-thiazole-5-carboxylic acid methylamide] | 21.3 nM
32 | Cc1nc(CCc2c(-c3ccc(F)cn3)noc2C)sc1C(=O)NCC(F)(F)F [Example 35, 2-{2-[3-(5-Fluoro-pyridin-2-yl)-5-methyl-isoxazol-4-yl]ethyl}-4-methyl-thiazole-5-carboxylic acid (2,2,2-trifluoro-ethyl)-amide] | 6.6 nM
33 | Cc1onc(-c2ccccn2)c1CCc1ncc(C(=O)NC(C)C)s1 [Example 22, 2-[2-(5-Methyl-3-pyridin-2-yl-isoxazol-4-yl)-ethyl]-thiazole-5-carboxylic acid isopropylamide] | 18.1 nM
34 | Cc1nc(CCc2c(-c3ccccc3)noc2C)sc1C(=O)NC1CCOC1 (stereo in doubt) [Example 2, (S)-4-Methyl-2-[2-(5-methyl-3-phenyl-isoxazol-4-yl)-ethyl]-thiazole-5-carboxylic acid (tetrahydro-furan-3-yl)-amide] | 10.9 nM
35 | Cc1onc(-c2ccccn2)c1CCc1ncc(C(=O)NCC(F)(F)F)s1 [Example 28, 2-[2-(5-Methyl-3-pyridin-2-yl-isoxazol-4-yl)-ethyl]-thiazole-5-carboxylic acid (2,2,2-trifluoro-ethyl)-amide] | 17.8 nM
36 | Cc1onc(-c2ccccn2)c1CCc1ncc(C(=O)NC2CCOCC2)s1 [Example 24, 2-[2-(5-Methyl-3-pyridin-2-yl-isoxazol-4-yl)-ethyl]-thiazole-5-carboxylic acid (tetra-hydro-pyran-4-yl)-amide] | 18.8 nM
